The values below are quoted from earlier work in patent US10413531B2, “Methods of treating bladder cancer” (Abraxis BioScience, LLC, priority 2013, dated 2019).

One series has as its system ABCB1/ABCG2. Conditions: Lin et al. (2013) Int J Cancer.
The conditions of series [1]: Lin et al. (2013) Int J Cancer.

Structures are written as SMILES.

As to `COc1ccc(COc2cc3oc(=O)c4cc(C(C)O)ccc4c3cc2OC)cc1` (centres unmarked) [Palomid 529], in the series on ABCB1/ABCG2, the “affinity for ABCB1/ABCG2” value is given as “lacks affinity for ABCB1/ABCG2”. Also, in series [1], the brain penetration entry is reported as “good brain penetration”.
